Measurements reported in US7517889B2, “2,6-substituted-4-monosubstitutedamino-pyrimidine as prostaglandin D2 receptor antagonists” (Aventis Pharmaceuticals, Inc., priority 2004, dated 2009).
Counter-ions that a name gives are not always drawn.

These molecules were tested against T1, DP receptor (Homo sapiens, UniProt Q13258) (assay: SPA cAMP assay in human LS174 T cells (human DP functional assay)). Details: inhibition of PGD2 (15 nM final) stimulated cAMP, LS174T cells expressing endogenous DP receptor.
T1 construct: the human cell line LS174T, which expresses the endogenous DP receptor; endogenous in cells; host or cells: LS174T human cell line
T1 sequence (Q13258 1-359): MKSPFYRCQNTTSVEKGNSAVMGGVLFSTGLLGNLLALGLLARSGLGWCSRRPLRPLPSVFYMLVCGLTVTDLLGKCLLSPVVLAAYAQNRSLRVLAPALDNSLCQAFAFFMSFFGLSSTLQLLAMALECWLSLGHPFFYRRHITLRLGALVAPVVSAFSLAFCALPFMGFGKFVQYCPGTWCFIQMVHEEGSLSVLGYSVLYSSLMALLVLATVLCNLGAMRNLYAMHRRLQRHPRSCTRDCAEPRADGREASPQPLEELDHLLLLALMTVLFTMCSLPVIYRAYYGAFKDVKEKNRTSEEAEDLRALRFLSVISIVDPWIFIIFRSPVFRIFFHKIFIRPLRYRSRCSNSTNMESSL
Format: cell-based
Procedure, shortened: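 LS174T cells with endogenous DP receptor, 45,000/well seeded overnight, exposed to compounds at 11 points for 15 min at 37 °C in buffer containing IBMX, with PGD2 stimulation.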

| Structure (SMILES) | IC50 |
| --- | --- |
| COc1nc(NCCc2ccc(OC(F)(F)F)cc2)cc(-c2cccc(C3(C(=O)NS(C)(=O)=O)CCOCC3)c2)n1 [Example 84(a), N-[4-(3-{2-Methoxy-6-[2-(4-trifluoromethoxy-phenyl)-ethylamino]-pyrimidin-4-yl}-phenyl)-tetrahydro-pyran-4-carbonyl]-methanesulfonamide] | 0.7 nM |
| COc1nc(NCCc2c(F)cccc2Cl)cc(-c2cccc(C=O)c2)n1 [Example 35(v), 3-{6-[2-(2-chloro-6-fluoro-phenyl)-ethylamino]-2-methoxy-pyrimidin-4-yl}-benzaldehyde] | 3.6 nM |
| COc1nc(NCCc2ccc(Cl)cc2Cl)cc(-c2cccc(C(=O)OCCN3CCN(C)CC3)c2)n1 [Example 76, 3-{6-[2-(2,4-Dichloro-phenyl)-ethylamino]-2-methoxy-pyrimidin-4-yl}-benzoic acid 2-(4-methyl-piperazin-1-yl)-ethyl ester] | 7 nM |
| CCNC(=O)Nc1cccc(-c2cc(NCCc3ccc(OC)cc3)nc(OC)n2)c1 [Example 41, 1-Ethyl-3-(3-{2-methoxy-6-[2-(4-methoxy-phenyl)-ethylamino]-pyrimidin-4-yl}-phenyl)-urea] | 7.6 nM |
| COc1nc(NC(C)Cc2ccc(Cl)cc2)cc(-c2ccc(OC)c(OC)c2)n1 (stereo not shown) [Example 43(a), [2-(4-Chloro-phenyl)-1-methyl-ethyl]-[6-(3,4-dimethoxy-phenyl)-2-methoxy-pyrimidin-4-yl]-amine] | 1730 nM |
| COc1nc(NCCc2ccc(OC)c(OC)c2)cc(-c2ccco2)n1 [Example 35(d), [2-(3,4-Dimethoxy-phenyl)-ethyl]-(6-furan-2-yl-2-methoxy-pyrimidin-4-yl)-amine] | 256 nM |
| COc1ccc(CCNc2cc(-c3cnco3)nc(OC)n2)cc1 [Example 45, (2-Methoxy-6-oxazol-5-yl-pyrimidin-4-yl)-[2-(4-methoxy-phenyl)-ethyl]-amine] | 7.8 nM |
| COc1nc(NCCc2c(F)cccc2Cl)cc(-c2cccc(COCC(=O)O)c2)n1 [Example 56, (3-{6-[2-(2-Chloro-6-fluoro-phenyl)-ethylamino]-2-methoxy-pyrimidin-4-yl}-benzyloxy)-acetic acid] | 0.6 nM |
| COc1nc(NCCc2ccc(C(F)(F)F)cc2F)cc(-c2cccc(CCNC(C)=O)c2)n1 [Example 65, N-[2-(3-{6-[2-(2-Fluoro-4-trifluoromethyl-phenyl)-ethylamino]-2-methoxy-pyrimidin-4-yl}-phenyl)-ethyl]-acetamide hydrochloride] | 37 nM |
| COc1ccc(CCNc2cc(-c3ccc(C=O)s3)nc(OC)n2)cc1 [Example 8(b), 5-{2-methoxy-6-[2-(4-methoxy-phenyl)-ethylamino]-pyrimidin-4-yl}-thiophene-2-carbaldehyde] | 0.6 nM |
| COc1ccc(C(C)(C)CNc2cc(-c3cccc(OC)c3)nc(OC)n2)cc1 [Example 29, [2-Methoxy-6-(3-methoxy-phenyl)-pyrimidin-4-yl]-[2-(4-methoxy-phenyl)-2-methyl-propyl]-amine] | 792 nM |
| COC(=O)C1(c2cccc(-c3cc(NCCc4ccc(OC(F)(F)F)cc4)nc(OC)n3)c2)CCOCC1 [Example 84(b), 4-(3-{2-Methoxy-6-[2-(4-trifluoromethoxy-phenyl)-ethylamino]-pyrimidin-4-yl}-phenyl)-tetrahydro-pyran-4-carboxylic acid methyl ester] | 70 nM |
| COc1nc(NCCc2c(F)cccc2Cl)cc(-c2cccc(Cc3noc(=O)[nH]3)c2)n1 [Example 34(b), 3-(3-{6-[2-(2-Chloro-6-fluoro-phenyl)-ethylamino]-2-methoxy-pyrimidin-4-yl}-benzyl)-4H-[1,2,4]oxadiazol-5-one hydrochloride] | 1 nM |
| COc1ccc(CCNc2cc(-c3ccc(C(=O)O)s3)nc(OC)n2)cc1 [Example 8(a), 5-{2-Methoxy-6-[2-(4-methoxy-phenyl)-ethylamino]-pyrimidin-4-yl}-thiophene-2-carboxylic acid trifluoroacetate] | 0.33 nM |
| COc1ccc(CCNc2cc(-c3ccsc3CO)nc(OC)n2)cc1 [Example 9(b), (3-{2-Methoxy-6-[2-(4-methoxy-phenyl)-ethylamino]-pyrimidin-4-yl}-thiophen-2-yl)-methanol] | 1.7 nM |
| COCC(=O)NCc1cc(-c2cc(NCCc3ccc(OC)cc3)nc(OC)n2)ccc1F [Example 28, N-(2-Fluoro-5-{2-methoxy-6-[2-(4-methoxy-phenyl)-ethylamino]-pyrimidin-4-yl}-benzyl)-2-methoxy-acetamide hydrochloride] | 9 nM |
| COc1ccc(CCNc2cc(-c3ccc(C(C)=O)cc3)nc(OC)n2)cc1 [Example 10(h), 1-(4-{2-Methoxy-6-[2-(4-methoxy-phenyl)-ethylamino]-pyrimidin-4-yl}-phenyl)-ethanone] | 6.3 nM |
| COc1nc(NCCc2ccc(Cl)cc2Cl)cc(-c2cccc(C3(C(=O)O)CCCC3)c2)n1 [Example 74, 1-(3-{6-[2-(2,4-Dichloro-phenyl)-ethylamino]-2-methoxy-pyrimidin-4-yl}-phenyl)-cyclopentanecarboxylic acid hydrochloride] | 0.5 nM |

More lines, now with the values ahead:

| IC50 | Structure (SMILES) |
| --- | --- |
| 7.3 nM | COc1ccc(CCNc2cc(-c3cccc(S(C)(=O)=O)c3)nc(OC)n2)cc1 [Example 10(i)] |
| 0.1 nM | CCS(=O)(=O)NC(=O)C(F)(F)c1cccc(-c2cc(NCCc3ccc(Cl)cc3Cl)nc(OC)n2)c1 [Example 81(b), Ethanesulfonic acid [2-(3-{6-[2-(2,4-dichloro-phenyl)-ethylamino]-2-methoxy-pyrimidin-4-yl}-phenyl)-2,2-difluoro-acetyl]-amide] |
| 26 nM | COc1ccc(CCNc2cc(-c3cn[nH]c3)nc(OC)n2)cc1 [Example 8(f), [2-(4-Methoxy-phenyl)-ethyl]-[2-methoxy-6-(1H-pyrazol-4-yl)-pyrimidin-4-yl]-amine] |
| 2.3 nM | COc1ccc(CCNc2cc(-c3ccc(C(N)=O)cc3)nc(OC)n2)cc1 [Example 10(e), 4-{2-Methoxy-6-[2-(4-methoxy-phenyl)-ethylamino]-pyrimidin-4-yl}-benzamide] |
| 5 nM | COc1nc(NCCc2ccc(Cl)cc2Cl)cc(N2CCCC(c3nn[nH]n3)C2)n1 (stereo not shown) [Example 96, [2-(2,4-Dichloro-phenyl)-ethyl]-{2-methoxy-6-[3-(2H-tetrazol-5-yl)-piperidin-1-yl]-pyrimidin-4-yl}-amine] |
| 9.7 nM | COc1cccc(-c2cc(NCCc3cccs3)nc(OC)n2)c1 [Example 43(e), [2-Methoxy-6-(3-methoxy-phenyl)-pyrimidin-4-yl]-(2-thiophen-2-yl-ethyl)-amine hydrochloride] |
| 0.3 nM | COc1nc(NCCc2c(F)cccc2Cl)cc(-c2cccc(OCc3noc(=O)[nH]3)c2)n1 [Example 34(c), 3-(3-{6-[2-(2-Chloro-6-fluoro-phenyl)-ethylamino]-2-methoxy-pyrimidin-4-yl}-phenoxymethyl)-4H-[1,2,4]oxadiazol-5-one hydrochloride] |
| 3.1 nM | COc1nc(NCCc2ccc(OC(F)(F)F)cc2)cc(-c2ccc3c(c2)CC(C(=O)O)O3)n1 (stereo not shown) [Example 88, 5-{2-Methoxy-6-[2-(4-trifluoromethoxy-phenyl)-ethylamino]-pyrimidin-4-yl}-2,3-dihydro-benzofuran-2-carboxylic acid hydrochloride] |
| 2.6 nM | COc1ccc(CCNc2cc(-c3cccc(-c4nc(C)no4)c3)nc(OC)n2)cc1 [Example 36, {2-Methoxy-6-[3-(3-methyl-[1,2,4]oxadiazol-5-yl)-phenyl]-pyrimidin-4-yl}-[2-(4-methoxy-phenyl)-ethyl]-amine] |
| 278 nM | COc1nc(NCCc2ccc(Cl)cc2Cl)cc(-c2cccc(C(C)(C)C(=O)NC3CCOCC3)c2)n1 [Example 95(d), 2-(3-{6-[2-(2,4-Dichloro-phenyl)-ethylamino]-2-methoxy-pyrimidin-4-yl}-phenyl)-N-(tetrahydro-pyran-4-yl)-isobutyramide] |
| 13 nM | COc1ccc(CCNc2cc(-c3ccc4c(c3)CCO4)nc(OC)n2)cc1 [Example 10(j), [6-(2,3-Dihydro-benzofuran-5-yl)-2-methoxy-pyrimidin-4-yl]-[2-(4-methoxy-phenyl)-ethyl]-amine] |
| 223 nM | CCOC(=O)C1(c2cccc(-c3cc(NCCc4ccc(Cl)cc4Cl)nc(OC)n3)c2)CCOCC1 [Example 80(c), 4-(3-{6-[2-(2,4-Dichloro-phenyl)-ethylamino]-2-methoxy-pyrimidin-4-yl}-phenyl)-tetrahydro-pyran-4-carboxylic acid ethyl ester] |
| 193 nM | COc1nc(NCCc2ccc(OC(F)(F)F)cc2)cc(-c2ccc(F)c(C(C)(C)C(=O)O)c2)n1 [Example 70, 2-(2-Fluoro-5-{2-methoxy-6-[2-(4-trifluoromethoxy-phenyl)-ethylamino]-pyrimidin-4-yl}-phenyl)-2-methyl-propionic acid] |
| 0.5 nM | COc1ccc(CCNc2cc(-c3ccc(OC)c(-c4nnn[nH]4)c3)nc(OC)n2)cc1 [Example 24(c), {2-Methoxy-6-[4-methoxy-3-(1H-tetrazol-5-yl)-phenyl]-pyrimidin-4-yl}-[2-(4-methoxy-phenyl)-ethyl]-amine] |
| 6 nM | COc1ccc(CCNc2cc(-c3cccc(-c4cc(C)no4)c3)nc(OC)n2)cc1 [Example 38, {2-Methoxy-6-[3-(3-methyl-isoxazol-5-yl)-phenyl]-pyrimidin-4-yl}-[2-(4-methoxy-phenyl)-ethyl]-amine] |
| 2 nM | COc1ccc(CCNc2cc(-c3ccccc3NS(C)(=O)=O)nc(OC)n2)cc1 [Example 10(d), N-(2-{2-Methoxy-6-[2-(4-methoxy-phenyl)-ethylamino]-pyrimidin-4-yl}-phenyl)-methanesulfonamide] |
